Measured values reported in patent US20250275959A1, “COMPOUNDS AND METHODS OF THEIR USE” (LEXICON PHARMACEUTICALS, INC., priority 2024, published 2025).
pIC50: −log10 of the molar value.

Assays:
[1] = biological target: hACSL5 (Homo sapiens (Human), UniProt Q9ULC5); assay: Human ACSL5 coupled enzyme Amplex Red assay; type: biochemical; settings: read-out: hACSL5 IC50
Outline: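 Amplex Red coupled readout: 1 mM ATP, 25 μM oleate and 30 μM CoA were added to compound-preincubated enzyme (20 nM, residues 33-683, insect-cell expressed, His-tagged) with coupling peroxidase and acyl-CoA oxidase at pH 7.6. Signal was read at 535/590 nm after 10 minutes at 25° C., and Hill fits yielded half-maximal and maximal inhibition.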

[2] = Murine diet-induced obesity (DIO) model, Compounds B-D study; type: in vivo, C57BL/6J mice; settings: DIO mice
Protocol: The effects of four representative compounds of the invention were tested in a mouse model of diet-induced obesity (DIO): • Compound A is (R)—N-(tert-butylsulfonyl)-4-(1-(5-(pyridin-3-yloxy)pyridin-2-yl)ethoxy)-3-(trifluoromethyl)benzamide; • Compound B is (R)-4-(1-(5-(cyclopropylmethoxy)pyridin-2-yl)propoxy)-N-((4-(2-(dimethylamino)ethoxy)phenyl)sulfonyl)-2,3-difluorobenzamide; • Compound C is (R)—N-((4-(2-(dimethylamino)ethoxy)piperidin-1l-yl)sulfonyl)-2,3-difluoro-4-(1-(5-(pyridin-2-yloxy)pyridin-2-yl)propoxy)benzamide; and • Compound D is (R)-2,3-difluoro-N-((4-methylpiperazin-1-yl)sulfonyl)-4-(1-(5-(pyridin-2-yloxy)pyridin-2-yl)propoxy)benzamide.
The mice used in these experiments were C57BL/6J mice fed a high-fat diet (D12492 from Research Diets) ad libitum during the study period. The vehicle and test article formulations were 10% w/v Solutol in water.
In this study, three compounds tested at 30 mg/kg were compared against vehicle control over a month. After their acclimation period, DIO mice were equally divided into groups of ten mice each based on body weight. The animals were pre-dosed for three days prior to formal dosing (once per day treatment every group), as well as weight and food intake were recorded from Day −2 onwards. From Day 1 to Day 27, the animals in the dosing group were administered orally by gavage at 5:00 p.m. every day. All animals were fasted overnight after dosing on Day 28 and Day 29. Then the blood (retro-orbital bleed) of mice from each group was collected at 7:00 a.m. to separate out the serum for measuring total cholesterol levels (TC), triglyceride (TG), aminotransferase alanine (ALT), aspartate aminotransferase (AST) and total bilirubin (TBil) levels on Day 29. On day 30, all animals were performed OGTT test (0 min, 15 min, 30 min, 60 min, 90 min and 120 min) and measured insulin levels (0 min, 15 min, 30 min and 60 min). On day 32, all animals were injected insulin after 4 hours fasting, then performed ITT test (0 min, 15 min, 30 min, 60 min and 90 min). On day 33, Epididymal white adipose tissue (eWAT), jejunum, liver, heart and brain were collected; eWAT, liver and heart weights were recorded. All of the adipose tissue in the abdominal cavity was collected and weighted, and the fatty tissue coefficient (body fat ratio) was calculated and then stored at −80° C. for inspection.
• 1. Body weight and Food Consumption: Pre-dose every day from Day −2 onwards. • 2. Day −2,—1 and Day 0: Handle mice and gavage with vehicle. • 3. Day 1˜27: Dose˜5:00 PM. • 4. Day 28: Dose˜5:00 PM. Fast overnight. • 5. Day 29: Determine total cholesterol levels and triglyceride, ALT, AST, total bilirubin levels˜7:00 AM. Resume feeding. • 6. Day 29: Dose˜5:00 PM. Fast overnight. • 7. Day 30: (No drug administration) Oral glucose tolerance test (OGTT) with glucose levels measured at Pre-dose, 15 min, 30 min, 60 min, 90 min and 120 min after the glucose challenge. And insulin levels will be test at time 0 min, 15 min, 30 min and 60 min after the glucose challenge. • 8. Day 30˜31: Dose˜5:00 PM. • 9. Day 32: (No drug administration) ITT test (two days after the OGTT test): Fast 4 h. After insulin injection, the levels of glucose will be measured at Pre-dose, 15 min, 30 min, 60 min and 90 min. • 10. After the ITT test. Collect serum with a terminal bleed from all 50 mice. • 11. Collect epidydimal WAT (eWAT) pad, jejunum, liver, heart, and brain. • 12. Record eWAT, liver, and heart weights. • 13. Before freezing tissue/serum: • (i) Assess Drug Concentration; serum, liver, eWAT, heart, jujenum, and brain. (25 serum samples; 5 mice/group will progress to biomarker study and remaining 25 serum samples saved for future analysis). • 14. Prepare liver, heart and eWAT tissue for histopathology analysis. • (ii) Liver for all 50 mice; HE staining to assess liver steatosis. • (iii) Heart or all 50 mice; HE and DAPI staining to assess cardiac morphology. […]

Chain of hACSL5 (Q9ULC5 33-683): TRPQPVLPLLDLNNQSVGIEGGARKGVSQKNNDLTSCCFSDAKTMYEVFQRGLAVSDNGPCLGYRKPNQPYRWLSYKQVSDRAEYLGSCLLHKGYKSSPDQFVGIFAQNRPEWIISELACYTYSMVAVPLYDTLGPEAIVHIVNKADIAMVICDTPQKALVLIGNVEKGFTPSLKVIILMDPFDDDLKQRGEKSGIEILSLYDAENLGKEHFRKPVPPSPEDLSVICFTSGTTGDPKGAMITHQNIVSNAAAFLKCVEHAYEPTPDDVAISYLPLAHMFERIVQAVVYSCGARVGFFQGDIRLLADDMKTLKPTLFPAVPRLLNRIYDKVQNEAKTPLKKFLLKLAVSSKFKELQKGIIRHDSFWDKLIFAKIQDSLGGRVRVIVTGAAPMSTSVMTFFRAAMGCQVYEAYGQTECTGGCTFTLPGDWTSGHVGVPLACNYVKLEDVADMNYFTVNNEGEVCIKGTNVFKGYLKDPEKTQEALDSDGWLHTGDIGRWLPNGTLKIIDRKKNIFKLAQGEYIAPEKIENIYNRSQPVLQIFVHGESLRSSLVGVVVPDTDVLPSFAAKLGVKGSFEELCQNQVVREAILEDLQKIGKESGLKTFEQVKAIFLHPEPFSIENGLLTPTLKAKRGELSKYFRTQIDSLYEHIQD

- pIC50 [1]: > 7.00
Structure (SMILES): CC[C@@H](Oc1ccc(C(=O)NS(=O)(=O)N2CCC(OCCN(C)C)CC2)c(F)c1F)c1ccc(Oc2ccccn2)cn1 [Compound C, (R)-N-((4-(2-(dimethylamino)ethoxy)piperidin-1-yl)sulfonyl)-2,3-difluoro-4-(1-(5-(pyridin-2-yloxy)pyridin-2-yl)propoxy)benzamide]
- mean body weight versus control group ([2]; 30 mg/kg oral daily): significantly lower than that of the control group from Day 23
- overall food consumption versus control group ([2]; 30 mg/kg oral daily): significantly lower than that of the control group
- Body Weight (g)/Day ([2]; 30 mg/kg oral daily, Day 1): 45 ± 4.9 g
- Body Weight (g)/Day ([2]; 30 mg/kg oral daily, Day 2): 44.8 ± 5 g
- Body Weight (g)/Day ([2]; 30 mg/kg oral daily, Day 3): 44.3 ± 4.9 g
- Body Weight (g)/Day ([2]; 30 mg/kg oral daily, Day 4): 44.3 ± 4.9 g
- Body Weight (g)/Day ([2]; 30 mg/kg oral daily, Day 5): 44.1 ± 4.9 g
- Body Weight (g)/Day ([2]; 30 mg/kg oral daily, Day 6): 44 ± 4.7 g
- Body Weight (g)/Day ([2]; 30 mg/kg oral daily, Day 7): 43.5 ± 4.9 g
- Body Weight (g)/Day ([2]; 30 mg/kg oral daily, Day 8): 44 ± 5 g
- Body Weight (g)/Day ([2]; 30 mg/kg oral daily, Day 9): 44.2 ± 4.8 g
- Body Weight (g)/Day ([2]; 30 mg/kg oral daily, Day 10): 44.2 ± 4.7 g
- Body Weight (g)/Day ([2]; 30 mg/kg oral daily, Day 11): 44.4 ± 4.8 g
- Body Weight (g)/Day ([2]; 30 mg/kg oral daily, Day 12): 43.9 ± 4.9 g
- Body Weight (g)/Day ([2]; 30 mg/kg oral daily, Day 13): 43.7 ± 4.7 g
- Body Weight (g)/Day ([2]; 30 mg/kg oral daily, Day 14): 43.7 ± 4.7 g
- Body Weight (g)/Day ([2]; 30 mg/kg oral daily, Day 15): 43.9 ± 4.8 g
- Body Weight (g)/Day ([2]; 30 mg/kg oral daily, Day 16): 44.1 ± 4.8 g
- Body Weight (g)/Day ([2]; 30 mg/kg oral daily, Day 17): 43.5 ± 4.7 g
- Body Weight (g)/Day ([2]; 30 mg/kg oral daily, Day 18): 43.6 ± 4.6 g
- Body Weight (g)/Day ([2]; 30 mg/kg oral daily, Day 19): 43.9 ± 4.9 g
- Body Weight (g)/Day ([2]; 30 mg/kg oral daily, Day 20): 44.1 ± 4.8 g
- Body Weight (g)/Day ([2]; 30 mg/kg oral daily, Day 21): 44.2 ± 5 g
- Body Weight (g)/Day ([2]; 30 mg/kg oral daily, Day 22): 44.1 ± 5.1 g
- Body Weight (g)/Day ([2]; 30 mg/kg oral daily, Day 23): 44.1 ± 5.3 g
- Body Weight (g)/Day ([2]; 30 mg/kg oral daily, Day 24): 43.8 ± 5.3 g
- Body Weight (g)/Day ([2]; 30 mg/kg oral daily, Day 25): 43.9 ± 5.2 g
- Body Weight (g)/Day ([2]; 30 mg/kg oral daily, Day 26): 43.9 ± 5.2 g
- Body Weight (g)/Day ([2]; 30 mg/kg oral daily, Day 27): 44.1 ± 5.2 g
- Body Weight (g)/Day ([2]; 30 mg/kg oral daily, Day 28): 43.9 ± 5.3 g
- Body Weight (g)/Day ([2]; 30 mg/kg oral daily, Day 29): 43.2 ± 5.2 g
- Body Weight (g)/Day ([2]; 30 mg/kg oral daily, Day 30): 41.4 ± 5 g
- Body Weight (g)/Day ([2]; 30 mg/kg oral daily, Day 31): 41.6 ± 5.2 g
- Body Weight (g)/Day ([2]; 30 mg/kg oral daily, Day 32): 41 ± 5 g
- Body Weight (g)/Day ([2]; 30 mg/kg, Day 0 (pre-dose)): 44.9 ± 5.1 g
- Body Weight (g)/Day ([2]; 30 mg/kg, Day −1 (pre-dose)): 44.9 ± 5.3 g
- Body Weight (g)/Day ([2]; 30 mg/kg, Day −2 (pre-dose)): 44.8 ± 5.2 g
- mean adipose weights versus control group ([2]; 30 mg/kg, abdominal adipose tissue): significantly lower than that of the control group
- ITT blood glucose versus control group ([2]; Day 32, at 15, 30, 60 and 90 minutes after insulin): significantly lower than that of the control group
